Common to all, as to experiment: NCI anticancer screen, dose series, 48 h
The test system of test [1] is TK-10 renal.
In test [2] the test system is U251 CNS.
For test [3], the system named is SK-MEL-2 melanoma.
The test system of test [4] is CAKI-1 renal.
Test [5] deals with NCI-H460 lung.
The subject of test [6] is A498 renal.
The subject of test [7] is EKVX NSCLC.
Test [8] concerns SNB-75 CNS.
For test [9], the system named is SK-OV-3 ovarian.
The test system of test [10] is OVCAR-8 ovarian.

In PubChem BioAssay (NCI) one finds TGI and GI50 data, which are given here for ten molecules.

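48-hour exposure; five concentrations; linearly interpolated endpoints. The concentration for 50% growth inhibition is given as GI50. At the TGI there is no net growth.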

As for `COc1cc2c3c(n(C)c(=O)c2cc1OC)-c1cc2c(cc1/C3=C\CCCCCN)OCO2`, the TGI in test [1] was 22.5 µM; in [2], 16.7 µM; in [3], above 100 µM; in [4] it was 54.2 µM; in test [5], 21.7 µM; in test [6], 39.4 µM. Also, the TGI was 52.2 µM in test [7], above 100 µM in test [8], 44.7 µM in test [9] and 3.33 µM in test [10]. The GI50 in [2] is 1.56 µM; in test [3] it was 31 µM; in [4] it was 1.63 µM; in test [5] it was 0.13 µM; in test [6], 10.6 µM; in test [7], 16.4 µM. Further, the GI50 in test [8] is 19.5 µM; in [9], 8.62 µM.
For the molecule `CC1=C(C(=O)Nc2ccccc2C)C(c2ccccc2)C(C(=O)Nc2ccccc2C)=C(C)N1`, the TGI in test [1] is above 100 µM; in [2], above 100 µM; in test [3], 93 µM; in test [4] it was above 100 µM; in test [5] it was above 100 µM; in [6], above 100 µM. Also, the TGI in test [7], in test [8], in [9] and in test [10] was above 100 µM in each case.
Regarding `COc1ccc(-c2nn3ncccc3c2-c2ccnc(Nc3ccc(Cl)c(C(F)(F)F)c3)n2)cc1`, the GI50 is 13.2 µM in test [1]; 12.4 µM in [2]; 11.6 µM in test [3]; 12.4 µM in [4]; 8.45 µM in test [5]; 6.52 µM in test [6]. Besides, the GI50 is 7.84 µM in test [7], above 13.8 µM in [8], 13.1 µM in test [9] and 8.58 µM in [10]. For the same molecule, the TGI in test [1], in [2], in test [3], in test [4], in [5] and in [6] was above 25 µM throughout. Also, the TGI in test [7], in test [8], in test [9] and in test [10] was above 25 µM each time.
As to `N#CCC(=O)Nc1cccc(C(F)(F)F)c1`, the TGI in test [1], in test [2], in test [3], in test [4], in test [5] and in test [6] was above 100 µM in each case. For the same molecule, the TGI in test [7], in test [8], in [9] and in [10] was above 100 µM in each case.
As for `C=CCn1c2c(c3ccccc3c1=O)C(=O)c1ccccc1-2`, the TGI in test [1], in test [2], in [3], in test [4], in test [5] and in [6] was above 100 µM each time. Further, the TGI in test [7], in [8], in test [9] and in [10] was above 100 µM in each case.
Regarding `COc1cc(-c2nn(-c3ccc(NC(=O)c4ccc(Cl)c(Cl)c4)cc3)cc2-c2ccncc2)ccc1Cl`, the GI50 in [1] is above 100 µM; in [2] it was 5.7 µM; in test [3], 5.74 µM; in test [4], 3.67 µM; in test [5], 4.17 µM; in test [6] it was 5.25 µM. For the same molecule, the GI50 in test [7] was 6.82 µM; in test [8] it was 7.52 µM; in [9], above 100 µM; in test [10] it was 5.28 µM. The TGI in [1], in test [2], in test [3], in test [4], in test [5] and in [6] was above 100 µM each time. In addition, the TGI in test [7], in test [8], in test [9] and in test [10] was above 100 µM throughout.
In the case of `CCc1cccc(C(C)C)c1NC(=O)C(=O)C(Cc1nc2ccccc2[nH]c1=O)C(=O)OC` (stereo not drawn), the TGI in [1], in test [2], in [3], in [4], in [5] and in [6] was above 100 µM in each case. The TGI in [7], in [8], in test [9] and in test [10] was above 100 µM throughout.
On to `Cn1c2c(c3ccccc31)CCN(CCCCN1CCc3c(n(C)c4ccccc34)C1=O)C2`, for which the TGI in test [1], in test [2], in [3], in [4], in test [5] and in test [6] was above 100 µM each time. Besides, the TGI in test [7], in test [8], in test [9] and in test [10] was above 100 µM in each case.
Regarding `CCOC(=O)c1ccc(NC(=O)N2CC(C)OC(C)C2)cc1` (stereo not drawn), the GI50 in [1], in test [2], in test [3], in [4], in test [5] and in [6] was above 100 µM in each case. The GI50 in [7], in [8], in test [9] and in test [10] was above 100 µM each time. For the same molecule, the TGI in test [1], in test [2], in test [3], in [4], in test [5] and in [6] was above 100 µM each time. Moreover, the TGI in [7], in [8], in [9] and in [10] was above 100 µM each time.
In the case of `O=C(CCCCCCSc1nc(-c2ccccc2)cc(-c2ccc(Cl)cc2)n1)NO`, the GI50 in [1] was 2.78 µM; in test [2] it was 1.59 µM; in [3], 3.65 µM; in test [4], 1.51 µM; in test [5], 1.22 µM; in test [6], 1.4 µM. The GI50 in test [7] is 3.7 µM; in [8], 1.95 µM; in test [9], 2.36 µM; in test [10] it was 1.93 µM. The TGI in [1] is 13.5 µM; in test [2] it was 4.08 µM; in [3], 16.2 µM; in [4], 6.89 µM; in test [5] it was 10.2 µM; in [6] it was 4.09 µM. In addition, the TGI in test [7] was 14.3 µM; in test [8] it was 13.7 µM; in test [9], 6.04 µM; in test [10], 10.2 µM.
